“Also recorded” adds a separate entry of the source. No end group written: not given here.
How the values were obtained:
[1] = system: PC-12 neuroendocrine cells; experiment: cAMP production in PC-12 cells; type: cell-based
[2] = system: primary adipocytes; experiment: Lipolytic glycerol release from primary adipocytes; type: cell-based, mice
Experimental: Mice were fasted for 12 hr prior to blood draw. Triglycerides (TG) and non-esterified fatty acids (NEFA) were assayed using kits from Wako Diagnostics (Richmond, Va.). Glycerol was assayed using a kit from Sigma (St Louis, Mo.). Media from the explant cultures and mouse serum were analysed for glycerol and NEFA as a measure of lipolysis. ELISA kits were used to determine plasma levels of leptin, adiponectin (Millipore, Billerica, Mass.) and CST (Bachem, Torrance, Calif.). For CST assay, plasma samples and reference standards were passed through mini C18 columns and the flow-through fractions were assayed. The same kits were used for measurements in culture media.
Primary adipocytes were isolated from epididymal fat pads essentially as described (43). Adipose tissues from WT and Chga-KO mice were minced in Krebs-Ringer bicarbonate-Hepes (KRBH) buffer, pH 7.4, containing 10 mM bicarbonate, 30 mM Hepes, 200 nM adenosine, 2.5 mM glucose and 1% fatty-acid-free BSA, and digested for 30-40 min with Type I collagenase (10 mg/g tissue; Invitrogen, Carlsbad, Calif.) with gentle swirling in a 37° C. incubator. The digestion mixture was then filtered through a nylon strainer and centrifuged at 400×g for 1 min. The oily layer (released from broken cells) above floating fat cells was skimmed off, and fat cells were recovered from the top and washed three times with warm KRBH.

[3] = system: AMPK and Stat3 phosphorylation; experiment: AMPK and Stat3 signaling in adipose tissue explants from Chga-KO mice; type: cell-based
Experimental: FIG. 6. Regulation of AMPK and Stat3 signaling by CST in adipose tissue explants. Explants from Chga-KO mice were treated with saline or CST (100 nM for 30 min) and immunoblotted for pAMPK and AMPK (A). Adipose explants from WT and Chga-KO mice were immunoblotted for pAMPK and AMPK after treatment with saline or leptin (1 μM) for 30 min (B). pAMPK and AMPK (C) and pStat3 and Stat3 (D) signaling in adipose explants from WT and Chga-KO mice after treatment for 30 min with saline, CST (100 nM), leptin (1 μM) or leptin plus CST.
(§1) Adipose tissue explants were prepared as described (42). Epididymal fat pads from 12 hr fasted WT, Chga-KO, DIO and Ob/Ob mice with or without CST treatment were collected in Kreb-Ringer-phosphate (KRP) buffer containing 10 mM Hepes and 0.5% BSA. Tissues were minced to 1-2 mm size and treated with 100 nM CST, 1 μM leptin, or saline for 30 min (for signaling analysis) or 3 hr (for lipolysis and β-oxidation assays). Explants were also treated acutely with CST, leptin, a combination, or saline. At the end, incubation media were saved for analysis of glycerol and fatty acid release. Explants were washed prior to homogenization for immunoblotting and analysis of fatty acid oxidation.
(§2) Adipose tissue explants after treatments ex vivo and tissues from mice treated in vivo were homogenized in a buffer containing phosphatase and protease inhibitors (20 mM Tris/HCl (pH 7.5), 250 mM sucrose, 2 mM EDTA, 2 mM EGTA, 2 mM Na3VO4, 10 mM NaF, 2 mM Na4P2O7, 1 mM phenylmethylsulfonyl fluoride, 20 μg/ml leupeptin, 10 μg/ml aprotinin, and 1 μM LR-microcystin) as described (38,44). Homogenates were subjected to SDS-PAGE and immunoblotted. Primary antibodies for AMPK and Stat3 were from Cell Signaling Technology (Beverly, Mass.). The chemiluminescence kit was from Pierce (Rockford, Ill.).

[4] = system: adipose tissue explants from DIO mice; experiment: Lipolysis and fatty acid oxidation in adipose explants of DIO mice; type: cell-based
Experimental: FIG. 8. Lipolysis and fatty acid oxidation in the adipose tissue explants of DIO and Ob/Ob mice after treatment with saline or CST for 16 days. Explants were incubated with saline or leptin (1 μM) for 3 hr and the concentrations of glycerol (A&C) and NEFA (B&D) released into the media from DIO (A&B) and Ob/Ob (C&D) explants were determined as a measure of lipolysis. Homogenates of the explants from DIO (E) and Ob/Ob […] were used to determine their capacity for oxidation of U-^14C-palmitate in response to the treatment with saline, CST, leptin and CST+leptin. The ^14CO2 released was captured and counted as the measure of fatty acid oxidation.
as §1
Oxidation of radiolabeled palmitate in the homogenates of adipose tissue explants as described previously (45). For oxidation studies of cultured cells, HepG2 (hepatocytes) and 3T3-L1 preadipocytes were obtained from ATCC and cultured following supplier's protocol. Confluent 3T3-L1 cultures were differentiated into adipocytes by treating with a cocktail of dexamethasone (100 nM), IBMX ([…]) and insulin (100 nM) for 10 days. Media were then switched to serum-free DMEM with 1% BSA. Hepatocytes were assayed for lipogenesis and fat oxidation in response to CST treatment. Serum-free cultures were treated with CST (100 nM) for 24 hr followed by a 2 hr incubation with U^14C-palmitate (0.5 μCi/ml). Fatty acid oxidation in cells was determined by modifying a published method (46). Specifically, the culture media in 24-well plates were acidified with 10% HClO4 after incubation with the labeled fatty acid and immediately covered with a thick filter paper sheet (cut to size) soaked in 2 N NaOH and placed underneath the plastic lid. The whole plate was sealed with parafilm. After further incubation for 2 hr, the filter paper sheet was marked as circles around the rim of the wells and then the circles were excised. The filter discs were counted to determine the amount of ^14CO2 absorbed in the papers. Cells in the culture wells were lysed in 1 N NaOH and protein content was assayed using Folin's reagent (BioRad, Hercules, Calif.).

[5] = system: STAT3 and AMPK phosphorylation; experiment: Stat3 and AMPK signaling in adipose explants from DIO mice; type: cell-based; conditions: CST in vivo, leptin 1 μM ex vivo 30 min
Experimental: FIG. 9. Stat3 and AMPK signaling in the adipose tissue explants from DIO and Ob/Ob mice treated with saline, CST (in vivo) and leptin (ex vivo). Explants from DIO mice (A&B) and Ob/Ob mice (C&D) were incubated with saline or leptin (1 μM) for 30 min, homogenized and immunoblotted for phospho- and total Stat3 (A&C) as well as phospho- and total AMPK signals (B&D). Results are presented as the ratio of signal strength of phospho-over total.
as §1, §2

[6] = system: HFD-fed Chga-KO mice; experiment: Peptide supplementation to HFD-fed Chga-KO mice (insulin sensitivity); type: in vivo; conditions: HFD (60%)-fed Chga-KO mice
[7] = CST in vivo 16 days, leptin 1 μM ex vivo 3 hr

**Q.** With SSMKLSFRARAYGFRGPGPQL [CST] as the sequence, how does the “basal or isoproterenol-induced cAMP levels” value [1] read?
**A.** did not modulate

**Q.** What about the cAMP production ([1]; CST 100 nM, ISO 10 μM, 10 min) of the same sequence?
**A.** not by CST

**Q.** What about the “effect on the lipolytic effect of isoproterenol” value ([2]; adipocytes, with isoproterenol 10 μM) of the same sequence?
**A.** potentiated

**Q.** What about the “glycerol release (lipolysis)” value ([2]; primary adipocytes, substance alone) of the same sequence?
**A.** stimulated glycerol release

**Q.** What about the “Stat3 phosphorylation, CST alone” value [3] of the same sequence?
**A.** lack of CST stimulation of Stat3 phosphorylation

**Q.** And the “leptin's ability to stimulate the phosphorylation of AMPK” value ([3]; CST plus leptin)?
**A.** restored

**Q.** What about the “leptin's ability to stimulate the phosphorylation of Stat3” value ([3]; CST plus leptin) of the same sequence?
**A.** restored

**Q.** What about the “AMPK phosphorylation, CST alone” value ([3]; acute CST 100 nM 30 min) of the same sequence?
**A.** stimulated AMPK phosphorylation; also recorded: significantly stimulated pAMPK signaling

**Q.** What about the palmitate oxidation [4] of the same sequence?
**A.** neither CST nor leptin alone stimulated oxidation

**Q.** And the “NEFA release in the media” value [4, 7]?
**A.** not significant

**Q.** And the “glycerol release in the media” value [4, 7]?
**A.** can release some glycerol in the media

**Q.** And the AMPK phosphorylation [5]?
**A.** not AMPK phosphorylation

**Q.** What about the STAT3 phosphorylation [5] of the same sequence?
**A.** stimulated only STAT3 phosphorylation

**Q.** And the “insulin sensitivity (GTT)” value [6]?
**A.** made HFD-fed Chga-KO mice sensitive to insulin

Source: patent publication US9572862B2, “Methods for promoting lipolysis and oxidation in liver and adipose tissue using catestatin” (The Regents of the University of California, priority 2012, dated 2017)
